# Measurements published in patent publication US12172974B2 (Biohaven Pharmaceutical Holding Company Ltd., priority 2012, dated 2024).
# Key:
# Assay type in all cases: in vitro ADME
# [1] = Stability in Simulated Gastric Fluid (SGF); conditions: 37° C., 0.01 mg/mL
# Experimental: (§1) Stability in Simulated Gastric Fluid (SGF) and Simulated Intestinal Fluid (SIF). Procedure from Baudy et. al. (J. Med. Chem. 2009, 52, 771-778) used. The physiological stability of prodrugs was determined by examining the stability of the compound in SGF, and SIF at 37° C. The compounds were prepared in a 9:1 mixture of the appropriate test component (SGF, SIF) and acetonitrile to a final concentration of 0.01 mg/mL. The samples were thoroughly mixed and maintained at 37° C. Each sample was injected consecutively onto an Agilent 1100 system (Luna C18, 3 μm, 50 mm×3 mm; 1 mL/min; mobile phase of 0.1% trifluoroacetic acid in water/0.1% trifluoroacetic acid in acetonitrile) after a 3 h period. The percent remaining of prodrug was calculated by comparing the area of prodrug compound versus riluzole generated. The identities of the parent compounds and conversion products were confirmed by LC/MS.
# [2] = Stability in Simulated Intestinal Fluid (SIF); conditions: 37° C., 0.01 mg/mL
# Experimental: as §1
# [3] = Metabolic stability in pooled mouse liver microsomes; conditions: mouse liver microsomes 0.5 mg/mL, 1 uM, 37° C., NADPH
# Experimental: (§2) Metabolic Stability: In vitro metabolic stability was determined in pooled mouse or human liver microsomes (BD Gentest) at a protein concentration of 0.5 mg/mL in reaction buffer (100 mM KH2PO4, pH 7.4 and 12 mM MgCl2). Each drug candidate was added to a final concentration of 1 uM. This mixture was pre-warmed to 37° C. for 10 minutes prior to starting the reaction with the addition of β-Nicotinamide adenine dinucleotide 2′-phosphate reduced (NADPH) to a final concentration of 1 mM. A parallel incubation lacking NADPH served as the control. After incubation for 30 min at 37° C., the reactions were quenched by the addition of acetonitrile containing 0.1% formic acid and internal standard, vortex mixed for 2 minutes and centrifuged at 4000 rpm for 10 minutes to pellet the precipitated protein. The resulting supernatant containing the drug candidate and its potential metabolites was diluted 5-fold with water containing 0.1% formic acid and submitted to LC-MS/MS analysis. […]
# (§3) LC-MS/MS Analysis: An aliquot from each incubation was analyzed by LC-MS/MS with SRM detection in the positive ionization mode using an ABSciex API 5500 QTrap Mass Spectrometer interfaced via the ABSciex Turbo V IonSpray source (ESI) to an Eksigent ExpressHT LC system. […] A fast gradient, from 15 to 85% organic in 2.5 minutes, with run time of 5.0 minutes, and flow rate of 50 ul/min was utilized. Peak areas were integrated using MultiQuant v2.0 software from ABSciex.
# [4] = Metabolic stability in pooled human liver microsomes; conditions: human liver microsomes 0.5 mg/mL, 1 uM, 37° C., NADPH
# Experimental: as §2, §3
# [5] = Plasma stability in fresh mouse plasma; conditions: 1 uM, 37° C.
# Experimental: (§4) Plasma Stability: Assessment of plasma stability was carried out by individual incubations of drug candidates in fresh mouse or human control plasma at a concentration of 1 uM for 1 hour at 37° C. After which, the samples were de-proteinized by addition of 2 volumes of acetonitrile containing 0.1% formic acid and internal standard, vortex mixed for 2 minutes and centrifuged at 4000 rpm for 10 minutes to pellet precipitated protein. The resulting supernatant containing the drug candidates was diluted 5-fold with water containing 0.1% formic acid and submitted to LC-MS/MS analysis. All determinations were done in triplicate. […]
# as §3
# [6] = Plasma stability in fresh human plasma; conditions: 1 uM, 37° C.
# Experimental: as §4, §3
Structure (SMILES),SGF (3 hours): percent of prodrug metabolized to riluzole [1] [%],SIF (3 hours): percent of prodrug metabolized to riluzole [2] [%],Metabolic Stability mouse (30 minutes): percent of prodrug metabolized to riluzole [3] [%],Metabolic Stability human (30 minutes): percent of prodrug metabolized to riluzole [4] [%],Plasma Stability mouse (1 hour): percent of prodrug metabolized to riluzole [5] [%],Plasma Stability Human (1 hour): percent of prodrug metabolized to riluzole [6] [%]
"COC(=O)CCC(=O)Nc1nc2ccc(OC(F)(F)F)cc2s1 [Cpd 21, N-(6-Trifluoromethoxy-benzothiazol-2-yl)-succinamic acid methyl ester]",3,0,77,34,99,25
"N[C@@H](COCc1ccccc1)C(=O)Nc1nc2ccc(OC(F)(F)F)cc2s1 [Cpd 10, (S)-2-Amino-3-benzyloxy-N-(6-trifluoromethoxy-benzothiazol-2-yl)-propionamide]",0,0,0,15,52,9
"O=C(O)CCC(=O)Nc1nc2ccc(OC(F)(F)F)cc2s1 [Cpd 20, N-(6-Trifluoromethoxy-benzothiazol-2-yl)-succinamic acid]",0,0,70,0,0,16
"Nc1ccc(C(=O)Nc2nc3ccc(OC(F)(F)F)cc3s2)cc1 [Cpd 28, 4-Amino-N-(6-trifluoromethoxy-benzothiazol-2-yl)-benzamide]",0,0,24,80,0,0
"O=C(Cc1ccccc1[N+](=O)[O-])Nc1nc2ccc(OC(F)(F)F)cc2s1 [Cpd 27, 2-(2-Nitro-phenyl)-N-(6-trifluoromethoxy-benzothiazol-2-yl)-acetamide]",0,0,59,22,0,13
"CC(C)COC(=O)Nc1nc2ccc(OC(F)(F)F)cc2s1 [Cpd 16, (6-Trifluoromethoxy-benzothiazol-2-yl)-carbamic acid isobutyl ester]",5,0,23,14,0,0
"N[C@H](COCc1ccccc1)C(=O)Nc1nc2ccc(OC(F)(F)F)cc2s1 [Cpd 5, (R)-2-Amino-3-benzyloxy-N-(6-trifluoromethoxy-benzothiazol-2-yl)-propionamide]",,,24,0,25,3
"C[C@H](N)C(=O)Nc1nc2ccc(OC(F)(F)F)cc2s1 [Cpd 7, (S)-2-Amino-N-(6-trifluoromethoxy-benzothiazol-2-yl)-propionamide]",0,50,1,0,28,10
"O=C(CCC(=O)Nc1nc2ccc(OC(F)(F)F)cc2s1)NCc1cccnc1 [Cpd 23, N-Pyridin-3-ylmethyl-N′-(6-trifluoromethoxy-benzothiazol-2-yl)-succinamide]",0,10,0,4,26,0
"CC(C)[C@H](N)C(=O)Nc1nc2ccc(OC(F)(F)F)cc2s1 [Cpd 11, (S)-2-Amino-3-methyl-N-(6-trifluoromethoxy-benzothiazol-2-yl)-butyramide]",0,40,40,6,45,11
"N[C@@H](Cc1ccccc1)C(=O)Nc1nc2ccc(OC(F)(F)F)cc2s1 [Cpd 9, (S)-2-Amino-3-phenyl-N-(6-trifluoromethoxy-benzothiazol-2-yl)-propionamide]",,,2,0,0,7
"CCCCCCOC(=O)Nc1nc2ccc(OC(F)(F)F)cc2s1 [Cpd 17, (6-Trifluoromethoxy-benzothiazol-2-yl)-carbamic acid hexyl ester]",0,,,,,
"NCC(=O)Nc1nc2ccc(OC(F)(F)F)cc2s1 [Cpd 1, 2-Amino-N-(6-trifluoromethoxy-benzothiazol-2-yl)-acetamide]",,,4,7,11,3
"O=C(CCC(=O)Nc1nc2ccc(OC(F)(F)F)cc2s1)NCCN1CCOCC1 [Cpd 24, N-(2-Morpholin-4-yl-ethyl)-N′-(6-trifluoromethoxy-benzothiazol-2-yl)-succinamide]",0,60,,,,
"NCC1(CC(=O)Nc2nc3ccc(OC(F)(F)F)cc3s2)CCCCC1 [Cpd 29, 2-(1-Aminomethyl-cyclohexyl)-N-(6-trifluoromethoxy-benzothiazol-2-yl)-acetamide]",0,50,,,,
